Read-outs that look alike come from different tables or passages of the source.
How the values were obtained:
[1] = Urinary excretion / renal clearance of acoziborole and SCYX-3109 by LC-MS/MS; assay type: in vivo; details: male, human, urine and plasma; CumAe0–240h/AUC0–240h; mean ± SD; 960 mg single oral dose of acoziborole; read-out: renal clearance CLr0–240h (converted)
Description: Urine samples were collected before IP administration (single urine void) and then during intervals of 0–6, 6–12, 12–24, 24–48, 48–72, 72–96, 96–120, 120–168, 168–192, 192–216, and 216–240 h post-dose and for the additional 48-h collection period starting on Day 15 post-dose, that is, 336–384 h. Samples were acidified with citric acid to avoid acoziborole degradation and were refrigerated until the end of the block collection periods. The total weight and volume of urine were then recorded. At the end of each collection period, two aliquots of acidified urine (20 mL) were taken from the sample and stored in polypropylene tubes at −20°C until further analysis for total radioactivity. Two aliquots of 1 mL acidified urine were collected into tubes containing bovine serum albumin in aqueous solution (to avoid non-specific adsorption of acoziborole) and NaCl for acoziborole and SCYX-3109 assays. […]
SGS Belgium (Wavre, Belgium) performed the analysis to determine acoziborole and SCYX-3109 concentrations, using validated bioanalytical assays with liquid chromatography with tandem mass spectrometry (LC-MS/MS) with a Supelco Ascentis Express C8, 2.7 µm, 50 × 2.1 mm I.D. separation column. In plasma, the lower limit of quantification (LLOQ) was 25 ng/mL for acoziborole and 10 ng/mL for SCYX-3109. […]

[2] = Safety and tolerability assessment, phase I mass balance study; assay type: in vivo, human
Description: Safety was assessed by adverse event (AE) reports and at specific times during the physical examination, vital signs, 12-lead ECGs, and laboratory evaluations (see Supplementary Information section 2). AEs were all recorded from the time participants signed the consent form until the follow-up call, 5–10 days after final study discharge, and were evaluated for type, severity, frequency of AEs, and relationship to the IP.

[3] = tested on: gambiense HAT infection; set-up: method as in PMID 36460027; details: single oral 960 mg, fasting, cited from earlier work

With `CC1(C)OB(O)c2cc(NC(=O)c3ccc(F)cc3C(F)(F)F)ccc21` [acoziborole] the CL renal [1] was 0.0333 mL/min, the overall tolerability ([2]; 960 mg single oral dose, N = 6) was “well-tolerated overall” and the “Balanitis candida, participants” value ([2]; Day 1, N = 6) was 0 (0.0) 0 (0.0) n (%). The “Blood glucose increased, participants” value ([2]; Day 1, N = 6) was 0 (0.0) 0 (0.0) n (%), the “Gastrointestinal disorders (system organ class), events” value (“Gastrointestinal disorders … events” below) ([2]; Day 1, N = 6) was 0 and the “Gastrointestinal disorders (system organ class), participants” value (shortened to “Gastrointestinal disorders … participants”) ([2]; Day 1, N = 6) was 0 (0.0) n (%). For the same molecule, the “Headache, events” value ([2]; Day 1, N = 6) was 2, the “Headache, participants” value ([2]; Day 1, N = 6) was 2 (33.3) n (%) and the “Infections and infestation (system organ class), events” value (shortened to “Infections and infestation … events”) ([2]; Day 1, N = 6) was 0. The “Infections and infestation (system organ class), participants” value (“Infections and infestation … participants” for short) ([2]; Day 1, N = 6) was 0 (0.0) n (%), the “Injury, poisoning and procedural complications (system organ class), events” value (from here on “Injury … events”) ([2]; Day 1, N = 6) was 0 and the “Injury, poisoning and procedural complications (system organ class), participants” value (“Injury … participants” below) ([2]; Day 1, N = 6) was 0 (0.0) n (%). For the same molecule, the “Investigations (system organ class), events” value (“Investigations … events” for short) ([2]; Day 1, N = 6) was 0, the “Investigations (system organ class), participants” value (“Investigations … participants” below) ([2]; Day 1, N = 6) was 0 (0.0) n (%) and the “Myalgia, events” value ([2]; Day 1, N = 6) was 0. The “Myalgia, participants” value ([2]; Day 1, N = 6) was 0 (0.0) n (%), the “Nervous system disorders (system organ class), events” value (“Nervous system disorders … events” for short) ([2]; Day 1, N = 6) was 2 and the “Nervous system disorders (system organ class), participants” value (from here on “Nervous system disorders … participants”) ([2]; Day 1, N = 6) was 2 (33.3) n (%). For the same molecule, the “Phosphokinase increased, participants” value ([2]; Day 1, N = 6) was 0 (0.0) 0 (0.0) n (%), the “Rhinitis, participants” value ([2]; Day 1, N = 6) was 0 (0.0) 0 (0.0) n (%) and the “Skin laceration, events” value ([2]; Day 1, N = 6) was 0. For the same molecule, the “Skin laceration, participants” value ([2]; Day 1, N = 6) was 0 (0.0) n (%), the “Surgical and medical procedures (system organ class), events” value (“Surgical and medical procedures … events” below) ([2]; Day 1, N = 6) was 0 and the “Surgical and medical procedures (system organ class), participants” value (“Surgical and medical procedures … participants” below) ([2]; Day 1, N = 6) was 0 (0.0) n (%). For the same molecule, the “TEAEs, events” value ([2]; Day 1, N = 6) was 2, the “TEAEs, participants” value ([2]; Day 1, N = 6) was 2 (33.3) n (%) and the “Tooth repair, events” value ([2]; Day 1, N = 6) was 0. The “Tooth repair, participants” value ([2]; Day 1, N = 6) was 0 (0.0) n (%), the “Toothache, events” value ([2]; Day 1, N = 6) was 0 and the “Toothache, participants” value ([2]; Day 1, N = 6) was 0 (0.0) n (%). For the same molecule, the “Balanitis candida, events” value ([2]; Day 2 to Day 15, N = 6) was 2, the “Balanitis candida, participants” value ([2]; Day 2 to Day 15, N = 6) was 1 (16.7) n (%) and the “Blood glucose increased, events” value ([2]; Day 2 to Day 15, N = 6) was 0. For the same molecule, the “Blood glucose increased, participants” value ([2]; Day 2 to Day 15, N = 6) was 0 (0.0) n (%), the “Gastrointestinal disorders … events” value ([2]; Day 2 to Day 15, N = 6) was 1 and the “Gastrointestinal disorders … participants” value ([2]; Day 2 to Day 15, N = 6) was 1 (16.7) n (%). The “Headache, events” value ([2]; Day 2 to Day 15, N = 6) was 1, the “Headache, participants” value ([2]; Day 2 to Day 15, N = 6) was 1 (16.7) n (%) and the “Infections and infestation … events” value ([2]; Day 2 to Day 15, N = 6) was 2. The “Infections and infestation … participants” value ([2]; Day 2 to Day 15, N = 6) was 1 (16.7) n (%), the “Injury … events” value ([2]; Day 2 to Day 15, N = 6) was 0 and the “Injury … participants” value ([2]; Day 2 to Day 15, N = 6) was 0 (0.0) n (%). For the same molecule, the “Investigations … events” value ([2]; Day 2 to Day 15, N = 6) was 1, the “Investigations … participants” value ([2]; Day 2 to Day 15, N = 6) was 1 (16.7) n (%) and the “Myalgia, events” value ([2]; Day 2 to Day 15, N = 6) was 0. The “Myalgia, participants” value ([2]; Day 2 to Day 15, N = 6) was 0 (0.0) n (%), the “Nervous system disorders … events” value ([2]; Day 2 to Day 15, N = 6) was 1 and the “Nervous system disorders … participants” value ([2]; Day 2 to Day 15, N = 6) was 1 (16.7) n (%). For the same molecule, the “Phosphokinase increased, events” value ([2]; Day 2 to Day 15, N = 6) was 1, the “Phosphokinase increased, participants” value ([2]; Day 2 to Day 15, N = 6) was 1 (16.7) n (%) and the “Rhinitis, events” value ([2]; Day 2 to Day 15, N = 6) was 0. The “Rhinitis, participants” value ([2]; Day 2 to Day 15, N = 6) was 0 (0.0) n (%), the “Skin laceration, events” value ([2]; Day 2 to Day 15, N = 6) was 0 and the “Skin laceration, participants” value ([2]; Day 2 to Day 15, N = 6) was 0 (0.0) n (%). The “Surgical and medical procedures … events” value ([2]; Day 2 to Day 15, N = 6) was 1, the “Surgical and medical procedures … participants” value ([2]; Day 2 to Day 15, N = 6) was 1 (16.7) n (%) and the “TEAEs, events” value ([2]; Day 2 to Day 15, N = 6) was 6. For the same molecule, the “TEAEs, participants” value ([2]; Day 2 to Day 15, N = 6) was 4 (66.7) n (%), the “Tooth repair, events” value ([2]; Day 2 to Day 15, N = 6) was 1 and the “Tooth repair, participants” value ([2]; Day 2 to Day 15, N = 6) was 1 (16.7) n (%). For the same molecule, the “Toothache, events” value ([2]; Day 2 to Day 15, N = 6) was 1, the “Toothache, participants” value ([2]; Day 2 to Day 15, N = 6) was 1 (16.7) n (%) and the “Balanitis candida, events” value ([2]; Day 16 to end of study, N = 6) was 0. The “Balanitis candida, participants” value ([2]; Day 16 to end of study, N = 6) was 0 (0.0) n (%), the “Blood glucose increased, events” value ([2]; Day 16 to end of study, N = 6) was 1 and the “Blood glucose increased, participants” value ([2]; Day 16 to end of study, N = 6) was 1 (16.7) n (%). For the same molecule, the “Gastrointestinal disorders … events” value ([2]; Day 16 to end of study, N = 6) was 0, the “Gastrointestinal disorders … participants” value ([2]; Day 16 to end of study, N = 6) was 0 (0.0) n (%) and the “Headache, events” value ([2]; Day 16 to end of study, N = 6) was 1. The “Headache, participants” value ([2]; Day 16 to end of study, N = 6) was 1 (16.7) n (%), the “Infections and infestation … events” value ([2]; Day 16 to end of study, N = 6) was 1 and the “Infections and infestation … participants” value ([2]; Day 16 to end of study, N = 6) was 1 (16.7) n (%). For the same molecule, the “Injury … events” value ([2]; Day 16 to end of study, N = 6) was 1, the “Injury … participants” value ([2]; Day 16 to end of study, N = 6) was 1 (16.7) n (%) and the “Investigations … events” value ([2]; Day 16 to end of study, N = 6) was 1. For the same molecule, the “Investigations … participants” value ([2]; Day 16 to end of study, N = 6) was 1 (16.7) n (%), the “Myalgia, events” value ([2]; Day 16 to end of study, N = 6) was 1 and the “Myalgia, participants” value ([2]; Day 16 to end of study, N = 6) was 1 (16.7) n (%). The “Nervous system disorders … events” value ([2]; Day 16 to end of study, N = 6) was 1, the “Nervous system disorders … participants” value ([2]; Day 16 to end of study, N = 6) was 1 (16.7) n (%) and the “Phosphokinase increased, events” value ([2]; Day 16 to end of study, N = 6) was 0. For the same molecule, the “Phosphokinase increased, participants” value ([2]; Day 16 to end of study, N = 6) was 0 (0.0) n (%), the “Rhinitis, events” value ([2]; Day 16 to end of study, N = 6) was 1 and the “Rhinitis, participants” value ([2]; Day 16 to end of study, N = 6) was 1 (16.7) n (%). The “Skin laceration, events” value ([2]; Day 16 to end of study, N = 6) was 1, the “Skin laceration, participants” value ([2]; Day 16 to end of study, N = 6) was 1 (16.7) n (%) and the “Surgical and medical procedures … events” value ([2]; Day 16 to end of study, N = 6) was 0. For the same molecule, the “Surgical and medical procedures … participants” value ([2]; Day 16 to end of study, N = 6) was 0 (0.0) n (%), the “TEAEs, events” value ([2]; Day 16 to end of study, N = 6) was 5 and the “TEAEs, participants” value ([2]; Day 16 to end of study, N = 6) was 3 (50.0) n (%). The “Tooth repair, events” value ([2]; Day 16 to end of study, N = 6) was 0, the “Tooth repair, participants” value ([2]; Day 16 to end of study, N = 6) was 0 (0.0) n (%) and the “Toothache, events” value ([2]; Day 16 to end of study, N = 6) was 0. For the same molecule, the “Toothache, participants” value ([2]; Day 16 to end of study, N = 6) was 0 (0.0) n (%), the “TEAEs not considered related to the IP” value ([2]; N = 6) was 10/13 and the “changes in ECG parameters, vital signs, or physical examination post-dose” value ([2]; N = 6) was “no significant changes”. The “deaths, serious AEs, discontinuations due to AE” value ([2]; N = 6) was “no deaths, serious AEs, or participant discontinuations due to any AE”, the “mean laboratory testing results (blood chemistry, hematology, urinalysis)” value ([2]; N = 6) was “within acceptable range or considered non-clinically significant” and the “severity of reported TEAEs” value ([2]; N = 6) was “mild or moderate”. For the same molecule, the “Musculoskeletal and connective tissue disorders (system organ class), events” value ([2]; human, in vivo, 1 day) was 0, the “Musculoskeletal and connective tissue disorders (system organ class), participants” value ([2]; human, in vivo, 1 day) was 0 (0.0) n (%) and the “treatment-emergent AEs, total number” value ([2]; in the six participants) was 13. The “safety and tolerability profile” value ([3]; 208 patients) was “acceptable safety and tolerability profile”, the “treatment success rate at 18 months” value ([3]; 159 out of 162 patients, evaluable population) was 98.1% and the “treatment success rate at 18 months” value ([3]; late-stage patients, modified intention-to-treat population) was 95.2%.

From publication PMC12587574, “Mass balance, pharmacokinetics, metabolism, and excretion of radiolabeled acoziborole, a potential novel treatment for human African trypanosomiasis, following single microtracer oral dose to humans” (Antimicrobial Agents and Chemotherapy, 2025)
